We go through 16 molecules from PMC9712658, “Structural analysis of the 2-oxoglutarate binding site of the circadian rhythm linked oxygenase JMJD5” (Scientific Reports, 2022).

The experiment concerns the target T1, full-length JMJD5 (aa 1–416, JMJD5^FL) (Homo sapiens, UniProt Q8N371).
T1 construct: 10 µM full-length JMJD5 (aa 1–416); His6 (N); made in house; host or cells: Escherichia coli Rosetta2(DE3)-pLysS
The experiment in a line: JMJD5 inhibition assay by MALDI-TOF MS (hydroxylation of RpS6_129-144 peptide). The conditions noted are these: for IC50: 10 µM JMJD5^FL, 100 µM Fe(II), 400 µM ascorbate, 50 µM 2OG, 100 µM RpS6_129-144, inhibitor 0–10 mM, mean (n = 3) ± SD. Format: biochemical. The source says:
To explore inhibition involving orthosteric 2OG ligand binding in the JMJD5 2OG pocket, we initially screened a focused set of compounds comprising relatively close 2OG mimetics, tricarboxylic acid (TCA) cycle intermediates, hypoxia inducible factor (HIF) prolyl hydroxylase (PHD) inhibitors, and JmjC histone demethylase (KDM) inhibitors (Supplementary Fig. S1).
[…] Hydroxylation of RpS6 peptide was monitored by MALDI-TOF MS and intensity of hydroxylated peak was quantified to determine the extent of inhibition caused by inhibitor.

T1 sequence (Q8N371 whole entry, the tested form may be a part): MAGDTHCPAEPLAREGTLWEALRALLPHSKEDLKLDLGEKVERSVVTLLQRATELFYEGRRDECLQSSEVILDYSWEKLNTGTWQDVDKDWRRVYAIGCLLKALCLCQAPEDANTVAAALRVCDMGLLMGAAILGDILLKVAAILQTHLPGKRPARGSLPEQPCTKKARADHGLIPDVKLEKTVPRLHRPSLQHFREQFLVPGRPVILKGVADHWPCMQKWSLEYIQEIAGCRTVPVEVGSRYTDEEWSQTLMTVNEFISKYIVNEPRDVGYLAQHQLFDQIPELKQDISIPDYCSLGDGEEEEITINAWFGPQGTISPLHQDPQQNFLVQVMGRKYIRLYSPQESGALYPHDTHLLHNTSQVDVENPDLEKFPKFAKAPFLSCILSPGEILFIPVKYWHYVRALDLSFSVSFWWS

The IC50 is the point on the concentration scale where inhibition reaches its midpoint. As for `O=C(O)c1ccnc(-c2cc(C(=O)O)ccn2)c1` [2.4-BPDCA, bipyridinyl-2,4-dicarboxylate], inhibition was half-maximal at 66 ± 1.5 µM (IC50).
Regarding `O=C(O)CNC(=O)c1ncc(-c2cccc(F)c2)cc1O` [AKB-6899], the half-maximal inhibitory concentration (IC50) came out at 288 ± 1.5 µM.
On to `O=C(O)CC(O)(CC(=O)O)C(=O)O` [Citrate], for which the IC50 amounted to 820 ± 1.8 µM.
`O=C(O)CC[C@@H](O)C(=O)O` [D-2HG, D-2-hydroxyglutarate] returned an IC50 of 1268 ± 1.5 µM.
Same read-out and setting: to `Cc1nc(C(=O)NCC(=O)O)c(O)c2ccc(Oc3ccccc3)cc12` [FG4592] belongs 239 ± 1.9 µM.
Take `O=C(O)CCNc1cc(N2CCc3ccccc3CC2)nc(-c2ccccn2)n1` [GSK-J1]: half-maximal inhibition (IC50) was put at 67 ± 1.5 µM.
`O=C(O)c1ccc(O)c2ncccc12` [IOX1, 5-carboxy-8-hydroxyquinoline] registered an IC50 of 96 ± 1.7 µM. This IC50 and that of the molecule before are within 1.5-fold of each other.
`CCN(CCN(C)C)C(=O)CNCc1cc(C(=O)O)ccn1` [KDM5-C49]: the midpoint of inhibition, the IC50, lay at 621 ± 1.4 µM.
`O=C(O)CC[C@H](O)C(=O)O` [L-2HG, L-2-hydroxyglutarate]: the 50% inhibitory concentration (IC50) is 340 ± 1.3 µM.
Take `CN(C)CCCNC(=O)c1ccc(-c2cc(O)c3ncccc3c2)cc1` [ML-324]: the IC50 stood at 15 ± 1.4 µM.
Still for that read-out and setting: to `O=C(O)CC(O)C(=O)O` (stereo not shown) [Malate] belongs 1604 ± 1.4 µM; to `O=C(O)CNC(=O)C(=O)O` [NOG, N-oxalylglycine], 6 ± 1.4 µM; to `O=C(O)CC(=O)C(=O)O` [Oxaloacetate], 85 ± 1.4 µM.
Regarding `CC(=O)C(=O)O` [Pyruvate], the IC50 came to 500 ± 1.6 µM.
In turn, `O=C(O)CCC(=O)O` [Succinate] came in with a half-maximal inhibitory concentration (IC50) of 840 ± 1.4 µM.
Regarding `CN(C)NC(=O)CCC(=O)O` [daminozide], the “JMJD5 inhibition (in words)” value (screen at 0.1, 1 and 10 mM and/or IC50 determination) is “Neither daminozide (a plant growth regulator that inhibits the JmjC KDM 2/7 oxygenases[56]), nor its structural derivative 7 appear to inhibit JMJD5”.
